The nature of the data set: in vitro. To be noted: human, hela cells, % viability.

Take `Cc1cccn2cc(CC(=O)NC3(C#N)CCCCC3)nc12` [CBK306252]: the viability at 28.5 h, 10 µM stood at 95.2%.

For the molecule `CCc1nc(CN2CCCC(NCc3cccc(C(N)=O)c3)C2)no1` (stereo not drawn) [CBK306254], the viability at 28.5 h, 10 µM is 87.2%.

As for `CC(C)Cc1nc(Cn2cnc3c(cnn3C)c2=O)no1` [CBK306256], the viability at 28.5 h, 10 µM amounted to 90.7%.

On to `CNS(=O)(=O)c1cccc(C(C)NC(=O)N2CCC2)c1` (stereo not drawn) [CBK306257], for which the viability at 28.5 h, 10 µM was found to be 87.1%.

On to `Cc1cc(S(=O)(=O)Nc2ccccc2-c2nnnn2C(C)C)c(C)o1` [CBK306259], for which the viability at 28.5 h, 10 µM was 111%.

With `CCCCNc1cc(N2CCN(c3cnn(C)c3)C(=O)C2)nc(N)n1` [CBK306260], the viability at 28.5 h, 10 µM is 87.8%.

As to `CCc1cnc(CNC(=O)NCc2nc3cc(C)ccc3n2C)s1` [CBK306261], the viability at 28.5 h, 10 µM came out at 98.9%.

On to `CS(=O)(=O)c1ccc(-n2nnnc2CN2CCC3(CCC3)C2)cc1` [CBK306262], for which the viability at 28.5 h, 10 µM came out at 79.6%.

On to `Cc1c(NC(=O)C2CCN(c3ccccc3Cl)C2)nnn1C` (stereo not drawn) [CBK306263], for which the viability at 28.5 h, 10 µM was determined as 90.7%.

For the molecule `Cn1cnc2cc(-c3nnn[nH]3)ccc21` [CBK306265], the viability at 28.5 h, 10 µM amounted to 90.2%.

Consider `Cn1c(=O)n(C)c2cc(S(=O)(=O)NCC3(N)CCOCC3)ccc21` [CBK306266], for which the viability at 28.5 h, 10 µM amounted to 113%.

`Cc1ccc2[nH]c3c(c2c1)CC(NS(=O)(=O)c1c(N)noc1C)CC3` (stereo not drawn) [CBK306270]: the viability at 28.5 h, 10 µM amounted to 86.6%.

As for `Cc1occc1C(=O)Nc1nc(CC(=O)N2CC(C)SC(C)C2)cs1` (stereo not drawn) [CBK306271], the viability at 28.5 h, 10 µM came to 87.8%.

As to `CC(C)Cn1cnc(S(=O)(=O)N2CCC(Cc3ccccc3)CC2)c1` [CBK306273], the viability at 28.5 h, 10 µM amounted to 92.3%.

As for `Cc1nc(C)n(CC2CCCN(S(=O)(=O)c3cnc4ccsc4c3)C2)n1` (stereo not drawn) [CBK306274], the viability at 28.5 h, 10 µM is 84.3%.

Consider `COc1cc(C)nc(NCc2cnn(C)c2C)n1` [CBK306277], for which the viability at 28.5 h, 10 µM is 85.4%.

In the case of `COCC1CN(C(=O)Nc2nnc(Cc3ccc(C)cc3)s2)CCO1` (stereo not drawn) [CBK306278], the viability at 28.5 h, 10 µM is 83.3%.

On to `Cn1nccc1NC(=O)Nc1ccc(CN2CCOC2=O)cc1` [CBK306279], for which the viability at 28.5 h, 10 µM was 88%.

Regarding `COCCn1c(SCc2cn3ccccc3c2C#N)nc(C)c1C` [CBK306282], the viability at 28.5 h, 10 µM stood at 92.4%.

For `Cc1noc(C)c1CN(C)C(=O)NC1CCCc2c1cnn2CCO` (stereo not drawn) [CBK306283], the viability at 28.5 h, 10 µM worked out at 92.5%.

`CCc1nc(CN2CCN(c3ccc4nc(C)nn4n3)CC2)cs1` [CBK306285]: the viability at 28.5 h, 10 µM stood at 89.1%.

On to `CCOc1cc(NC2CCN(C(=O)OC(C)(C)C)CC2)ncn1` [CBK306288], for which the viability at 28.5 h, 10 µM is 89.6%.

In the case of `CN(Cc1ccco1)C(=O)NC1CCCc2c1cnn2CCO` (stereo not drawn) [CBK306290], the viability at 28.5 h, 10 µM turned out to be 108%.

Consider `CC(c1ccc(F)c(F)c1)N(C)C(=O)Cn1cnc2c(c1=O)CCC2` (stereo not drawn) [CBK306291], for which the viability at 28.5 h, 10 µM turned out to be 88.6%.

On to `Cn1ncc2c1CCCC2NC(=O)N(CCO)Cc1ccccc1` (stereo not drawn) [CBK306293], for which the viability at 28.5 h, 10 µM is 86.1%.

For `Cc1ncc(CN(C)C(=O)c2cccc(NC(=O)C3CCCCC3)c2)s1` [CBK306295], the viability at 28.5 h, 10 µM was 83%.

On to `CCN1CCCN(c2ccc(-n3ccc(C)n3)nn2)CC1` [CBK306297], for which the viability at 28.5 h, 10 µM is 108%.

In the case of `CCn1c(CN2CCn3c(nnc3C3CC3)C2)nc2c(F)cccc21` [CBK306300], the viability at 28.5 h, 10 µM is 96.6%.

With `Cc1ccn(-c2ccc(N3CCC4(CCOC4)C3)nn2)n1` (stereo not drawn) [CBK306302], the viability at 28.5 h, 10 µM was determined as 87.8%.

Consider `Cn1ncnc1COc1ccc(S(=O)(=O)NC2CCCC2)cc1` [CBK306305], for which the viability at 28.5 h, 10 µM came out at 107%.

For the molecule `CNC(=O)C1CCCCN1C(=O)c1cn(CCOC)c2ccccc12` (stereo not drawn) [CBK306308], the viability at 28.5 h, 10 µM is 94.8%.

On to `Cn1cc(CNCCCN2CCc3ccccc32)c(-c2cccnc2)n1` [CBK306316], for which the viability at 28.5 h, 10 µM turned out to be 93.3%.

On to `CC(=O)N(C)Cc1cccc(Nc2ncnc3c2cnn3C)c1` [CBK306319], for which the viability at 28.5 h, 10 µM was 95.3%.

The values above are taken from article PMC12040169 (PLOS Biology, 2025).
